# Test results: patent US8288421B2, “Phenylaminopyridines” (Basilea Pharmaceutica AG, priority 2004, dated 2012)
# What was measured:
# HeLa [1] = assay: MTS proliferation assay; type: cell-based, human; conditions: 72 h read-out
# Description: (§1) The assay is performed in 96 well tissue culture plates. The cells (range: 1.5*10^3-10^4) are seeded out in 80 μl complete medium 24 h prior to compound treatment. The test compounds are added in 20 μl complete medium containing max 5% DMSO. The final compound concentrations in the assays are in the range of 0.001 μM-10 μM. The assay plates are incubated for 72 h at culture conditions. The MTS reagent is prepared according to the manufacturer's protocol (Promega G1111). 20 μl MTS reagent are added to each well, the assay plates are quickly spun and incubated for another 3 h at culture conditions. Subsequently, the plates are shortly shaked and absorption measured with a microplate-reader at 492 nm. The scores A, B, C and D are explained at the end of the Table.
# Jurkat [2] = assay: MTS proliferation assay; type: cell-based, human; conditions: 72 h read-out
# Description: as §1
# HT1080 = assay: MTS proliferation assay; type: cell-based, human; conditions: HT1080, 72 h read-out
# Description: as §1
# HeLa [3] = assay: Mitochondrial membrane potential (JC-1); type: cell-based, human; conditions: 48 h read-out
# Description: (§2) This assay is performed in 96 well tissue culture plates. Appropriate number of cells (adherent cells: 3-5*10^3, suspension cells: 8-10*10^3) are being seeded out in 80 μl complete medium. Adherent cells are incubated for 24 h for proper spreading out before addition of test compounds while suspension cells are immediately treated with test compounds after seeding out. The test compounds are added in 20 μal complete medium containing max 5% DMSO. […] The assay plates are then further incubated for 30 minutes and subsequently analyzed with a standard inverted fluorescence microscope by using the FITC and TRITC filters.
# (§3) The scores A, B, C and D are explained at the end of the Table.
# MCF7 = assay: Mitochondrial membrane potential (JC-1); type: cell-based, human; conditions: MCF7, 48 h read-out
# Description: as §2, §3
# PBL [4] = assay: Mitochondrial membrane potential (JC-1); type: cell-based, human; conditions: 48 h read-out
# Description: as §2, §3
# Jurkat [5] = assay: Mitochondrial membrane potential (JC-1); type: cell-based, human; conditions: 48 h read-out
# Description: as §2, §3
# MRC5 [6] = assay: Hoechst 33342 nuclear staining; type: cell-based; conditions: MRC5, 48 h read-out
# Description: as §2, with “μl” for “μal”, “DMSO. The final compound concentrations in the assays are in the range of 0.001 μM-10 μM.” for “DMSO.”, “microscope.” for “microscope by using the FITC and TRITC filters.”
# (§4) The readout allows the determination of the fraction of apoptotic nuclei as well as other morphological criteria specific for apoptosis as a function of the treatment. The scores A, B, C and D are explained at the end of the Table.
# Jily [7] = assay: Hoechst 33342 nuclear staining; type: cell-based; conditions: 48 h read-out
# Description: as §2, with “μl” for “μal”, “DMSO. The final compound concentrations in the assays are in the range of 0.001 μM-10 μM.” for “DMSO.”, “microscope.” for “microscope by using the FITC and TRITC filters.”
# as §4
# MRC5 [8] = assay: MTS proliferation assay; type: cell-based; conditions: MRC5, 72 h read-out
# Description: as §1
# Jily [9] = assay: MTS proliferation assay; type: cell-based; conditions: 72 h read-out
# Description: as §1
# HeLa [10] = assay: PI staining for cell cycle distribution; type: cell-based, human; conditions: 24 h read-out, read-out: PI staining for cell cycle distribution EC50 (G2M arrest), HeLa
# Description: 1-2*10^5 cells are seeded into 24 well tissue culture plates and incubated for 24 h prior to compound addition. Compounds are added for 24 h in a final concentration of 3 μM or 10 μM. Adherent cells are harvested by trypsinization. The cell suspensions are fixed by adding 2 parts ice cold ethanol 100% while vortexing. Then the samples are stored for >2 h at −20° C. Subsequently the cells are washed with PBS once and resuspended in 250 μl PBS containing 50 μg/ml PI (Calbiochem #537059), then the samples are incubated at 37° C. for 30 minutes and subsequently analyzed on a FACSCalibur™ monitoring linear PI fluorescence activity on FL2. The readout allows the detection of a possible direct or indirect influence of the tested compounds on the cell cycle. All active test compounds induce an arrest of the cell population in the G2M phase. This effect has been quantified by running the test at different concentrations. In Table 4 EC50 values are tabulated.
# DOHH2 = assay: Mitochondrial membrane potential (JC-1); type: cell-based; conditions: DOHH2, 48 h read-out
# Description: as §2, §3
# HeLa [11] = assay: Hoechst 33342 nuclear staining; type: cell-based, human; conditions: 48 h read-out
# Description: as §2, with “μl” for “μal”, “DMSO. The final compound concentrations in the assays are in the range of 0.001 μM-10 μM.” for “DMSO.”, “microscope.” for “microscope by using the FITC and TRITC filters.”
# as §4
# PBL [12] = assay: Hoechst 33342 nuclear staining; type: cell-based, human; conditions: 48 h read-out
# Description: as §2, with “μl” for “μal”, “DMSO. The final compound concentrations in the assays are in the range of 0.001 μM-10 μM.” for “DMSO.”, “microscope.” for “microscope by using the FITC and TRITC filters.”
# as §4
# Jurkat [13] = assay: Hoechst 33342 nuclear staining; type: cell-based, human; conditions: 48 h read-out
# Description: as §2, with “μl” for “μal”, “DMSO. The final compound concentrations in the assays are in the range of 0.001 μM-10 μM.” for “DMSO.”, “microscope.” for “microscope by using the FITC and TRITC filters.”
# as §4
# H460 = assay: Colony Forming Units; type: cell-based, human; conditions: H460, read-out after 6 days
# Description: (§5) Appropriate numbers of cells (100-150 cells, dependent on the cell type) are being seeded out in 1 ml complete medium into 6-well plates and allowed to attach for 48 h. The compounds are added after 48 h in 500 μl solution. The concentrations are in the range of 0.001 μM-3 μM. Control plates receive the same volume of medium containing the appropriate amount of DMSO. The plates are incubated for 6 days at cell culture conditions and subsequently scored for growth of colonies (containing more than 30 cells) by using a microscope.
# HeLa [14] = assay: Colony Forming Units; type: cell-based, human; conditions: read-out after 6 days
# Description: as §5
SMILES,IC50 (HeLa [1]; Homo sapiens) [nM],IC50 (Jurkat [2]; Homo sapiens) [nM],"IC50 (HT1080; Homo sapiens, HT-1080) [nM]",EC50 (HeLa [3]; Homo sapiens) [nM],EC50 (MCF7; Homo sapiens) [nM],EC50 (Jily [7]) [nM],IC50 (Jily [9]) [nM],IC50 (HeLa [1]) [nM],IC50 (HT1080) [nM],EC50 (HeLa [3]) [nM],EC50 (MCF7) [nM],EC50 (PBL [4]) [nM],EC50 (Jurkat [5]) [nM],EC50 (MRC5 [6]) [nM],IC50 (MRC5 [8]) [nM],EC50 (HeLa [10]) [nM],EC50 (DOHH2) [nM],EC50 (HeLa [11]) [nM],EC50 (PBL [12]) [nM],EC50 (Jurkat [13]) [nM],further results
"COc1ccc(Nc2cncc(-c3cccc(NS(C)(=O)=O)c3)c2)cc1 [Example 1, 3-(m-Mesylaminophenyl)-5-(p-methoxyphenylamino)pyridine]",100 to 1000,10 to 100,100 to 1000,100 to 1000,> 1000,100 to 1000,10 to 100,,,,,,,,,,,,,,"EC50 (PBL [4]; Homo sapiens): > 1000 nM; EC50 (Jurkat [5]; Homo sapiens): 100 to 1000 nM; EC50 (MRC5 [6]; Homo sapiens): 100 to 1000 nM; IC50 (MRC5 [8]; Homo sapiens): 100 to 1000 nM; EC50 (HeLa [10]; Homo sapiens): 100 to 1000 nM; melting point: 240 °C; EC50 (DOHH2; Homo sapiens, DOHH-2): 100 to 1000 nM; EC50 (HeLa [11]; Homo sapiens): 100 to 1000 nM; EC50 (PBL [12]; Homo sapiens): > 1000 nM; EC50 (Jurkat [13]; Homo sapiens): 100 to 1000 nM"
CCS(=O)(=O)Nc1cccc(-c2cncc(Nc3ccc(OC)cc3)c2)c1 [Example 4],,,,,,10 to 100,10 to 100,100 to 1000,10 to 100,100 to 1000,> 1000,> 1000,< 10,10 to 100,100 to 1000,100 to 1000,< 10,100 to 1000,> 1000,10 to 100,IC50 (Jurkat [2]): 10 to 100 nM; IC50 (H460): 10 to 100 nM; IC50 (HeLa [14]): 10 to 100 nM
COc1ccc(Nc2cncc(-c3cccc(NC(=O)c4ccncc4)c3)c2)cc1 [Example 16],,,,,,< 10,,10 to 100,< 10,10 to 100,100 to 1000,> 1000,< 10,< 10,< 10,10 to 100,< 10,10 to 100,> 1000,< 10,
"COc1ccc(Nc2cncc(-c3cccc(NC(=O)c4ccccc4)c3)c2)cc1 [Example 2, 3-(m-Benzoylaminophenyl)-5-(p-methoxyphenylamino)pyridine]",10 to 100,< 10,10 to 100,10 to 100,> 1000,10 to 100,< 10,,,,,,,,,,,,,,"EC50 (PBL [4]; Homo sapiens): > 1000 nM; EC50 (Jurkat [5]; Homo sapiens): 10 to 100 nM; EC50 (MRC5 [6]; Homo sapiens): > 1000 nM; IC50 (MRC5 [8]; Homo sapiens): 10 to 100 nM; EC50 (HeLa [10]; Homo sapiens): 100 to 1000 nM; melting point: 135 to 140 °C; IC50 (H460; Homo sapiens, NCI-H460, 144 h): 100 to 1000 nM; IC50 (HeLa [14]; Homo sapiens, 144 h): 100 to 1000 nM; EC50 (DOHH2; Homo sapiens, DOHH-2): 10 to 100 nM; EC50 (HeLa [11]; Homo sapiens): 10 to 100 nM; EC50 (PBL [12]; Homo sapiens): > 1000 nM; EC50 (Jurkat [13]; Homo sapiens): 10 to 100 nM"
COc1ccc(Nc2cncc(-c3cccc(NC(=O)c4cccnc4Cl)c3)c2)cc1 [Example 11],,,,,,10 to 100,10 to 100,10 to 100,10 to 100,10 to 100,> 1000,> 1000,10 to 100,10 to 100,10 to 100,< 10,10 to 100,10 to 100,> 1000,10 to 100,IC50 (Jurkat [2]): 10 to 100 nM
"COc1ccc(Nc2cncc(-c3cccc(Nc4ccccn4)c3)c2)cc1 [Example 3, 5-(p-Methoxyphenylamino)-3-(m-[2-pyridylamino]phenyl)pyridine]",100 to 1000,10 to 100,10 to 100,100 to 1000,100 to 1000,10 to 100,10 to 100,,,,,,,,,,,,,,"EC50 (PBL [4]; Homo sapiens): > 1000 nM; EC50 (Jurkat [5]; Homo sapiens): 10 to 100 nM; EC50 (MRC5 [6]; Homo sapiens): 100 to 1000 nM; IC50 (MRC5 [8]; Homo sapiens): 100 to 1000 nM; melting point: 161 to 165 °C; EC50 (DOHH2; Homo sapiens, DOHH-2): 10 to 100 nM; EC50 (HeLa [11]; Homo sapiens): 100 to 1000 nM; EC50 (PBL [12]; Homo sapiens): > 1000 nM; EC50 (Jurkat [13]; Homo sapiens): 10 to 100 nM"
COc1ccc(Nc2cncc(-c3cccc(NS(=O)(=O)CCCCl)c3)c2)cc1 [Example 7],,,,,,10 to 100,10 to 100,100 to 1000,100 to 1000,100 to 1000,> 1000,> 1000,10 to 100,10 to 100,100 to 1000,100 to 1000,10 to 100,10 to 100,> 1000,10 to 100,IC50 (Jurkat [2]): 10 to 100 nM
